Patent publication US10596169B2, “Cancer treatment with combination of plinabulin and taxane” (BeyondSpring Inc., priority 2013, dated 2020)

Legend:
[1] = test system: MV522 human non-small cell lung tumor xenograph model; assay: Example 1: MV522 xenograft, NPI-2358 single agent and with docetaxel (TGI/TGD); assay type: in vivo, athymic nu/nu mice
Method: In vivo evaluation of plinabulin (NPI-2358) as a single agent and in combination with docetaxel in the MV522 human non-small cell lung tumor xenograph model in athymic nu/nu mice
The objective of the example was to determine potential additive or synergistic effects of plinabulin in combination with docetaxel in the MV522 model by exploring the scheduling of the drug combination explored by administering one of the agents 2 hours after the first drug was given. Significant endpoints for this experiment included mean tumor growth inhibition (TGI) or regression, tumor growth delay (TGD) in large tumor, weight loss, and mortality.
(§1) Female nude mice (Hsd: Athymic Nude-Foxn1^nu) between 5 and 6 weeks of age weighing approximately 20 grams were obtained from Harlan, Inc. (Madison, Wis.). MV522 is a conventional human NSC metastatic lung tumor cell line (U.S. Pat. No. 7,700,615 or 7,629,380). Animals were injected subcutaneously (SC) with approximately 1×10^7 MV522 cells harvested from tissue culture. When tumors grew to approximately 105 cubic millimeters (mm^3) in size (3 days following implantation), animals were pair-matched by tumor size into treatment and control groups; each treatment group contained eight mice. Animals were ear-tagged and followed individually throughout the experiment.
(§2) Initial doses were administered on Day 1 following pair-matching. The experiment was carried out as a tumor growth inhibition (TGI) and tumor growth delay (TGD) study. Group 1 endpoint was when tumor volume reached 1.2 cm^3 (TGI) and the treated groups endpoint was when each individual animal's tumor volume reached 1.5 cm^3 (TGD). […] To serve as negative controls, NPI-2358 vehicle and docetaxel vehicle were injected IP on a 2×WKLY×3 schedule and IV on a Q2D×3 schedule, respectively. Docetaxel was administered by intravenous (IV) injection via tail vein at 15 mg/kg once every other day for three treatments (Q2D×3) or at 25 mg/kg on a Q7D×3 schedule (every 7 day for three treatment). Docetaxel and docetaxel vehicle were administered two hours prior to NPI-2358 vehicle and NPI-2358, respectively, in Groups 7-9 and 12-14. For Groups 10, 11, 15, and 16, NPI-2358 was given two hours prior to docetaxel.
Mice were weighed and caliper tumor measurements taken. Tumor growth inhibition (TGI) values were calculated for each group containing treated animals using the formula below: […]
Animals experiencing complete tumor responses or animals experiencing technical or drug-related deaths were censored from final TGI calculations; however animals experiencing partial tumor responses were included in the final TGI calculations. […] TGI values for each treatment group are reported at study completion; these calculations are based on the final study day.
This arm of the study was ended on Day 74 at the sponsor's request. […] Upon TGD study completion, a Median Day of Sacrifice (MDS) was calculated for the control (C) and each treatment (T) group and used to determine tumor growth delay (T-C) using the following equations: MDS=Median [ΣIDS] T−C=MDSTreated−MDSControl
Where IDS (Individual Day of Sacrifice) is the day when each animal reached its tumor volume endpoint (1.5 cm^3); only animals reaching this endpoint were included in TGD calculations. Gross or net log10 cell kill for each treatment group was determined using the following equations: […]

[2] = Method: as §1, §2
Individual and group mean weights ±SD and percent weight change were recorded twice weekly until study completion beginning Day 1. Group weights on Day 42 and weight nadir values are reported.
Animals were observed twice weekly for general moribundity and daily for mortality.

[3] = G5: NPI-2358 3.75 mg/kg IP 2xWKLYx3

**Q.** What does the source list for `CC(C)(C)c1[nH]cnc1/C=c1\[nH]c(=O)/c(=C/c2ccccc2)[nH]c1=O` [NPI-2358]?
**A.** #CR (Day 25) [1, 3]: 0/0; #CR (TGD study) [1, 3]: 0/0; #LTS (long-term survivors) [1, 3]: 0; #PR (Day 25) [1, 3]: 0/0; #PR (TGD study) [1, 3]: 0/0; % TGI [1, 3]: 2%; Final tumor volume (Day 25) mean ± SEM [1, 3]: 1347 ± 82 mm^3; Log10 cell kill [1, 3]: 0.0; T-C (tumor growth delay) [1, 3]: 0; MDS day ± SD ([1]; G5: NPI-2358 3.75 mg/kg IP 2xWKLYx3, endpoint 1.5 cm^3): 29 ± 2 days; Tumor volume / tumor burden compared to vehicle control ([1]; single agent, Example 1): slight decrease in tumor volume; Final weight (Day 25) % change [2, 3]: +15%; Final weight (Day 25) mean ± SD [2, 3]: 23 ± 1 g; Weight nadir % change [2, 3]: 0%; Weight nadir day [2, 3]: 1; Animal weight loss ([2]; single agent groups, Example 1, given doses and schedule): No significant animal weight loss
